These results are taken from patent US20200071380A1, “COMBINATION THERAPIES COMPRISING SIRP ALPHA-BASED CHIMERIC PROTEINS” (Shattuck Labs, Inc., priority 2018, published 2020).

The test system of assay [1] is RAW264.7-ISG cells. Nature of the assay: RAW264.7-ISG interferon reporter cells co-cultured with A20 lymphoma cells. In kind it is cell-based, murine. Conditions: co-culture with A20 lymphoma cells, 24 hours. The protocol:
FIG. 8D: Macrophage:Toledo lymphoma co-cultures were harvested 2 hours into phagocytosis assays in the presence of rituximab ([…]), SIRPα-Fc-CD40L ([…]), or the combination of both agents. Macrophages were isolated by CD11b+FACS, RNA was prepared, cDNA synthesized, and gene expression (IFNa1, IFNb1, CD80, and CD86) assessed by qRT-PCR. Fold change was calculated using DDCT and values obtained from the housekeeping gene ACTB, and the corresponding values from untreated samples. […] After 2 hours, co-cultures were isolated from tissue culture vessels and were stained with a fluorescently conjugated CD11b antibody to discriminate macrophages. Cells were then assessed by flow cytometry for the co-localization of fluorescent signal from both cells types. […] After 24-hours type I interferon induced luminescence was assessed using a luminometer. The maximum luminescence (RLU) from each experiment was set to 1, and all other samples were normalized accordingly. […]
Additionally, a macrophage reporter system was used to detect activation. […] After 24 hours, culture supernatant was collected and assessed for luciferase activity, which would indicate activation of a type I interferon response in the RAW-ISG reporter cells. […]

Assay [2] has as its system parental CHOK1 cells. Nature of the assay: Flow cytometry binding to parental CHOK1 cells. The source says: Scale is shown and yellow arrows correspond with each identified monomer. A schematic of the hexamer species is shown to the right, depicting dimerization of the Fc domain and trimerization of the CD40L domain. […] Recombinant hSIRPα-Fc, hCD40L-Fc, and hIgG1 were used as positive controls. […] In both panels, the CHOK1 Parental is on the left and the CHOK1/hCD47 is on the right. […] For both graphs, the CHOK1 Parental is on the bottom. […] In this figure, the control is the top curve, the SIRPα-Fc-CD40L is the middle curve, and the anti-CD47 is the bottom curve.
The extracellular domain (ECD) of SIRPα and the ECD of CD40L were fused via an antibody Fc domain to generate SIRPαECD-Fc-CD40LECD chimeric proteins. When human proteins were used, the chimeric protein is referred to as hSIRPα-Fc-CD40L; when murine proteins were used, the chimeric protein is referred to as and mSIRPα-Fc-CD40L. […] The purified protein was then analyzed for the presence of each individual domain by Western blotting using anti-SIRPα, anti-Fc, and anti-CD40L antibodies (FIG. 3A, bottom). […] Next, binding affinities for SIRPα-Fc-CD40L to recombinant CD47, CD40, or Fc receptors were evaluated by surface plasmon resonance (SPR). […] A functional ELISA evaluated whether SIRPα-Fc-CD40L could outcompete a commercially available single-sided SIRPα-Fc control for binding to recombinant CD47 (FIG. 3H).
On the technique in general: A flow cytometer gives signals particle by particle.

Assay [3] concerns the target recombinant hCD47 and recombinant hCD40 (Homo sapiens, UniProt P25942+Q08722). In words: Functional dual ELISA, hCD40 capture and hCD47-His detection. The format is binding. On the technique in general: In an ELISA, binding on a coated surface is turned into a signal by an enzyme label.
Assay [4] deals with CT26 tumors. Nature of the assay: Syngeneic CT26 colon tumor model versus CD40/CD47 antibodies (Example 11). In kind it is in vivo, mice. The protocol:
FIG. 20C: a similar CT26 experiment was initiated as described in FIG. 20A above, however mice were pre-treated on days −1, 1, and 10 with IP injections of 100 μg of either or both CD4/CD8 depleting antibodies. Mice were inoculated with CT26 tumors on day 0 and treated at a later starting date than FIG. 20A with mSIRPα-Fc-CD40L ARC on days 7, 9, and 11. […] In FIG. 20D and FIG. 20E, BALB/C mice were inoculated with WEHI3 tumors (FIG. 20D) or A20 tumors (FIG. 20E) subcutaneously on the rear flank, and then treated via IP injection with anti-CD20 or mSIRPα-Fc-CD40L on days 7, 9, and 11 (WEHI3) or days 10, 12, and 14 (A20); when tumors were established and reached approximately 57-60 mm^3. A cohort of mice were pre-treated with an interferon alpha receptor 1 (IFNAR1) blocking antibody ([…] by IP injection) on days -1, 1, and 10 (WEHI3) or on days −1, 1, and 13 (A20). FIG. 20F to FIG. 20H are graphs showing blockade of CD4, CD8, and IFNAR1. Peripheral blood analysis by flow cytometry of CD4 (FIG. 20F), CD8 (FIG. 20G), and IFNAR1 (FIG. 20H) depletion following depleting antibody treatment corresponding to FIG. 20C to FIG. 20E. Samples were normalized to untreated animals.
Implanted CT26 tumors were allowed to grow to ˜30 mm^3 before treatment was initiated with a fixed regimen of two doses of either a CD40 agonist antibody (clone FGK4.5), a CD47 blocking antibody (clone MIAP301), a combination of the two antibodies, or the murine SIRPα-Fc-CD40L chimeric protein. […] Based on this observation, these experiments were repeated in the setting of antibody-mediated depletion of both CD4+ and CD8+ cells (FIG. 20C).
CD4 and CD8 depletion was verified in the peripheral blood at multiple time points during the experiment (see, FIG. 20F and FIG. 20G).

The test system of assay [5] is A431, HCC827, K562, HCC1954 and MCF7 cells. Nature of the assay: Macrophage phagocytosis of EGFR/HER2 human tumor cell line panel. The format is cell-based. Conditions: variety of human tumor cell lines.

Regarding “SIRPα-Fc-CD40L: Generic name of the SIRPα ECD-Fc-CD40L ECD chimeric protein; human or murine version depending on the test system”, in assay [1], the “type I interferon response, interferon gene-driven luciferase activity” value is on record as “stimulates an increase in interferon gene-driven luciferase activity”. Also, in assay [2], the “binding to parental CHOK1 cells” value is “not to parental CHOK1 cells”. In addition, the “simultaneous binding to recombinant hCD47 and recombinant hCD40” value in assay [3] is given as “simultaneous binding”. Moreover, in assay [4] (antibody-mediated depletion of CD4+ cells), the “therapeutic benefit, requirement for CD4+ T cells” value is on record as “partially required”. Moreover, in assay [4] (antibody-mediated depletion of CD8+ cells), the “therapeutic benefit in the absence of CD8+ cells” value is “completely eliminated the therapeutic benefit”. In addition, the “proportion of AH1-tetramer positive CD8+ T cells” value in assay [4] (tumor and spleen, 13 days following tumor inoculation) was “increase in the proportion of AH1-tetramer positive CD8+T cells in both the tumor and spleen”. For the same substance, the “macrophage phagocytosis of tumor cells” value in assay [5] is recorded as “stimulated macrophage phagocytosis of tumor cells”.
